The term IC50 denotes the concentration needed to halve the response being measured.

For the first assay, the target named is T1, Syk kinase (Homo sapiens, UniProt P43405).
T1 construct: purchased
The experiment in a line: Syk kinase inhibition, Caliper LabChip off-chip mobility-shift kinase assay. The assay is classed as biochemical. As to conditions: Caliper LabChip assay; read-out: Syk Enzyme IC50. The essentials: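 Purified Syk pre-incubated 15 min with compound in 100 mM HEPES pH 7.5, 1 mM DTT, 10 mM MgCl2 or MnCl2, 0.002% Brij-35, then 1.5 μM fluorescein peptide and ATP at apparent KM added; 1–1.5 h at room temperature, 4% DMSO, EDTA stop. Microfluidic mobility-shift product/substrate conversion gave % inhibition; IC50 from 12-point series (10–0.00003 μM) by 4-parameter fit.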
In the case of `Cn1ccc2cc(Nc3nccc(O)n3)nc(NC3CCC3)c2c1=O` [compound 800], the IC50 turned out to be 9 nM. Same read-out and setting: the same measure for `Cn1cc2cc(Nc3nc(Nc4c[n+]([O-])ccn4)cc4ccn(CCO)c(=O)c34)ccc2n1` [compound 658]: 99 nM.

`CCOC(=O)c1cnn(-c2cc(Nc3cc4ccn(CCO)c(=O)c4c(NC(C)(C)C)n3)ncn2)c1` [compound 889]: the IC50 is 2180 nM.

Consider `CC(C)(C)Nc1nc(Nc2cnccn2)cc2ccn(CC(N)=O)c(=O)c12` [compound 662], for which the IC50 came out at 17 nM.

For `Cc1ccnc(Nc2cc3ccn(C(C)C)c(=O)c3c(N[C@H]3CC[C@@H](CO)C3)n2)c1` [compound 987], the IC50 was 60 nM. On the same count and under the same terms, the same measure for `CC1(Cn2ccc3cc(-c4cnc(N)nc4)nc(NC4CC(F)(F)C4)c3c2=O)COC1` [compound 758]: 90 nM; for `CCn1ccc2cc(Nc3cnccn3)nc(NC(C)(C)CO)c2c1=O` [compound 895]: 27 nM; for `CC(C)(C)Nc1nc(Nc2cnccn2)cc2ccn(CCC(N)=O)c(=O)c12` [compound 661]: 10 nM. On the same count and under the same terms, the same measure for `CCn1ccc2cc(Nc3cnccn3)nc(N[C@@H]3CCC[C@H]3O)c2c1=O` [compound 940]: 483 nM. On the same count and under the same terms, the same measure for `CC1(Cn2ccc3cc(Nc4cnccn4)nc(NC4CCC4)c3c2=O)COC1` [compound 755]: 9 nM. For the compound `CC1(Nc2nc(Nc3cc(C(C)(C)O)ccn3)cc3ccn(CC(N)=O)c(=O)c23)CCC1` [compound 722], the IC50 worked out at 155 nM. The same measure, in the same setting: the same measure for `Cc1ccnc(Nc2cc3ccn(C(C)C)c(=O)c3c(N[C@H]3CC[C@@H](O)CC3)n2)c1` [compound 943]: 39 nM. On the same count and under the same terms, the result for `COCC(COC)n1ccc2cc(Nc3cnccn3)nc(NC(C)(C)C)c2c1=O` [compound 937] reads 12 nM; that for `CC(C)(C)Nc1nc(Nc2cc(N3CCCC(O)C3)ccn2)cc2ccn(CCO)c(=O)c12` (stereo not shown) [compound 848], 615 nM.

On to `CC(C)(C)Nc1nc(-c2cnc(N)nc2)cc2ccn(CCCCO)c(=O)c12` [compound 920], for which the IC50 was 18 nM.

In the case of `CC(C)(C)Nc1nc(Nc2cc(C(C)(C)CO)ccn2)cc2ccn(CCO)c(=O)c12` [compound 863], the IC50 is 301 nM.

For `Cc1ccnc(Nc2cc3ccn(C)c(=O)c3c(Nc3ccc(C)c(S(N)(=O)=O)c3)n2)c1` [compound 654], the IC50 came out at 250 nM. The same measure, in the same setting: the same measure for `Cc1ccnc(Nc2cc3ccn(CCN4CCOCC4)c(=O)c3c(N[C@H]3CC[C@@H](O)CC3)n2)c1` [compound 993]: 67 nM; for `Nc1ncc(-c2cc3ccn(C[C@H](O)CO)c(=O)c3c(NC3CCCC3)n2)cn1` [compound 776]: 18 nM.

Still in this assay, the particulars now being: read-out: Syk Enzyme IC50.
Take `Cc1cc(Nc2nc(C(C)O)cc3cc[nH]c(=O)c23)ccc1C1CCNCC1` (stereo not shown) [compound 236]: the IC50 was 12 nM. Same read-out and setting: the result for `Cc1cc(Nc2nc(Nc3cc(Cl)ccn3)cc3cc[nH]c(=O)c23)ccc1C1CCN(C2CC2)CC1` [compound 257] reads 170 nM. Still for that read-out and setting: the result for `Cn1ccc2cc(Nc3cnccn3)nc(NC(C)(C)C)c2c1=O` [compound 466] reads 120 nM; that for `CCN1CCN(c2n[nH]c3cc(Nc4nc(-c5cncc(C(=O)N6CCOCC6)c5)cc5cc[nH]c(=O)c45)ccc23)CC1` [compound 206], 60 nM; that for `C/C=C/c1cc2cc[nH]c(=O)c2c(Nc2ccc(C3CCN(C4CC4)CC3)c(C)c2)n1` [compound 228], 1660 nM. The same measure, in the same setting: the result for `O=c1[nH]ccc2cc(Nc3ccccn3)nc(N3CCCC3)c12` [compound 279] reads 1420 nM; that for `CC(=O)c1cc2cc[nH]c(=O)c2c(Nc2ccc(C3CCNCC3)c(C)c2)n1` [compound 232], 242 nM. For the compound `COc1cncc(-c2cc3cc[nH]c(=O)c3c(Nc3ccc(C4CCN(C(=O)C(C)(C)N)CC4)c(C)c3)n2)n1` [compound 52], the IC50 stood at 30 nM. As for `Cc1ccnc(Nc2cc3cc[nH]c(=O)c3c(NC(C)(C)C)n2)c1` [compound 494], the IC50 was 75 nM. On the same count and under the same terms, the same measure for `CCCCNc1nc(Nc2cc(C)ccn2)cc2cc[nH]c(=O)c12` [compound 532]: 250 nM; for `CCOCCOc1ccc(Nc2nc(Nc3cnccn3)cc3ccn(C)c(=O)c23)cc1` [compound 340]: 2060 nM; for `CCN1CCN(CCc2ccc(Nc3nc(-c4cncc(OC)n4)cc4c(F)c[nH]c(=O)c34)cc2)CC1` [compound 440]: 343 nM. Same read-out and setting: the same measure for `CCn1ccc2cc(Nc3cc(C)ccn3)nc(N[C@H]3CCC[C@H]3O)c2c1=O` (racemic) [compound 360]: 67 nM; for `CCn1ccc2cc(Nc3cc(Cl)ccn3)nc(NCC(F)(F)F)c2c1=O` [compound 592]: 962 nM. The same measure, in the same setting: the result for `Cc1ccnc(Nc2cc3cc[nH]c(=O)c3c(N[C@H]3CCC[C@H]3O)n2)c1` (racemic) [compound 271] reads 26 nM; that for `Cc1ccnc(Nc2cc3ccn(C)c(=O)c3c(Nc3ccc(C(N)=O)cc3)n2)c1` [compound 483], 62 nM. Regarding `CC(C)(C)Nc1nc(-c2cnc(N)nc2)cc2cc[nH]c(=O)c12` [compound 455], the IC50 is 59 nM. Still for that read-out and setting: the same measure for `CCn1ccc2cc(Nc3cc(C)ccn3)nc(N[C@H]3CCC[C@H]3O)c2c1=O` [compound 420]: 11 nM; for `CCOCCOc1cccc(Nc2nc(Nc3cnccn3)cc3ccn(C)c(=O)c23)c1` [compound 337]: 2130 nM; for `CCN1CCN(c2n[nH]c3cc(Nc4nc(-c5ccc(C)nc5)cc5cc[nH]c(=O)c45)ccc23)CC1` [compound 200]: 56 nM. Same read-out and setting: the result for `CCCNC(=O)c1ccc(Nc2nc(Nc3cnccn3)cc3ccn(C)c(=O)c23)cc1` [compound 366] reads 323 nM; that for `COc1cncc(-c2cc3cc[nH]c(=O)c3c(Nc3ccc(C4CN(CCC#N)C4)cc3)n2)n1` [compound 153], 32 nM; that for `CCN1CCN(C2CCC(c3ccc(Nc4nc(-c5cncnc5)cc5cc[nH]c(=O)c45)cc3)CC2)CC1` (stereo not shown) [compound 108], 116 nM. Still for that read-out and setting: the same measure for `Cc1ccnc(Nc2cc3cc[nH]c(=O)c3c(NC[C@@H](O)c3cccc(Cl)c3)n2)c1` [compound 539]: 915 nM; for `Cc1ccnc(Nc2cc3cc[nH]c(=O)c3c(NC[C@@H]3CCCO3)n2)c1` [compound 505]: 63 nM; for `O=c1[nH]ccc2cc(-c3cncnc3)nc(Nc3ccc(C4CCNCC4)c(F)c3)c12` [compound 194]: 28 nM. On to `Nc1ncc(-c2cc3cc[nH]c(=O)c3c(NCC3CC3)n2)cn1` [compound 189], for which the IC50 was determined as 384 nM.

`C[C@@H]1CN(c2ccc(Nc3nc(CCC(=O)O)cc4cc[nH]c(=O)c34)cn2)CCO1` [compound 243]: the IC50 is 307 nM.

With `CCC(=O)N1CCC(c2ccc(Nc3nc(-c4cncc(OC)n4)cc4cc[nH]c(=O)c34)cc2C)CC1` [compound 80], the IC50 was found to be 63 nM. The same measure, in the same setting: the result for `Cn1ccc2cc(Nc3cnccn3)nc(Nc3cccc(S(N)(=O)=O)c3)c2c1=O` [compound 339] reads 879 nM; that for `COc1cncc(-c2cc3cc[nH]c(=O)c3c(Nc3ccc(C4CCN(C(C)C)CC4)c(C)c3)n2)n1` [compound 165], 3 nM. Same read-out and setting: the result for `CCN1CCN(Cc2n[nH]c3cc(Nc4nc(-c5cncnc5)cc5cc[nH]c(=O)c45)ccc23)CC1` [compound 202] reads 27 nM; that for `[2H]C([2H])([2H])n1ccc2cc(Nc3cnccn3)nc(NC(C)(C)C)c2c1=O` [compound 469], 97 nM.
